Experimental data as given in PubChem BioAssay AID1963450 (Molecular Pharmacology Branch, DTP, NCI, 2024).

System: 556581-035-R-J1-PDC complex spheroid growth
Test: Anticancer human tumor 556581-035-R-J1-PDC patient-derived ovarian carcinoma cell line growth inhibition [Asc]
Conditions: for IC50: curve of first compound; for viability, T/C: stronger effect = lower value
In short: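 Tumor cells were grown as complex spheroids with human endothelial cells (HUVEC) and human mesenchymal stem cells as stroma. Agents were tested alone and in combination, in half-log steps down from the clinical Cmax, or from 10 microM where Cmax was unknown.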

[1] = second compound 0.1 µM, first compound 0.00949 µM
[2] = second compound 0.1 µM, first compound 0.03 µM
[3] = second compound 0.1 µM, first compound 0.0949 µM
[4] = second compound 0.1 µM, first compound 0.3 µM
[5] = second compound 0.316 µM, first compound 0.00949 µM
[6] = second compound 0.316 µM, first compound 0.03 µM
[7] = second compound 0.316 µM, first compound 0.0949 µM
[8] = second compound 0.316 µM, first compound 0.3 µM
[9] = second compound 1 µM, first compound 0.00949 µM
[10] = second compound 1 µM, first compound 0.03 µM
[11] = second compound 1 µM, first compound 0.0949 µM
[12] = second compound 1 µM, first compound 0.3 µM
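Also: spheroids exposed to agents for 7 days before viability read.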

With `Cc1nc(N2CCC3(CC2)COC(C)C3N)c(CO)nc1Sc1ccnc(N)c1Cl` (configuration not stated) + CNC(C)C(=O)NC1CN(S(=O)(=O)c2cccc(S(=O)(=O)N3CCC4CCC(C(=O)NC(c5ccccc5)c5ccccc5)N4C(=O)C(NC(=O)C(C)NC)C3)c2)CCC2CCC(C(=O)NC(c3ccccc3)c3ccccc3)N2C1=O the IC50 (second compound 0.00316 µM) was > 3 µM, the IC50 (second compound 0.01 µM) was > 3 µM and the IC50 (second compound 0.0316 µM) was 1.96 µM. For the same compound, the IC50 (second compound 0.1 µM) was 1.21 µM, the IC50 (second compound 0.316 µM) was 0.278 µM and the IC50 (second compound 1 µM) was 0.184 µM. For the same compound, the viability, T/C (second compound 0.00316 µM, first compound 0.00949 µM) was 107%, the viability, T/C (second compound 0.00316 µM, first compound 0.03 µM) was 95.9% and the viability, T/C (second compound 0.00316 µM, first compound 0.0949 µM) was 90.2%. The viability, T/C (second compound 0.00316 µM, first compound 0.3 µM) was 79.4%, the viability, T/C (second compound 0.00316 µM, first compound 0.949 µM) was 80% and the viability, T/C (second compound 0.00316 µM, first compound 3 µM) was 49.1%. The viability, T/C (second compound 0.01 µM, first compound 0.00949 µM) was 107%, the viability, T/C (second compound 0.01 µM, first compound 0.03 µM) was 94.5% and the viability, T/C (second compound 0.01 µM, first compound 0.0949 µM) was 76%. The viability, T/C (second compound 0.01 µM, first compound 0.3 µM) was 73.8%, the viability, T/C (second compound 0.01 µM, first compound 0.949 µM) was 64.9% and the viability, T/C (second compound 0.01 µM, first compound 3 µM) was 53.2%. The viability, T/C (second compound 0.0316 µM, first compound 0.00949 µM) was 91.4%, the viability, T/C (second compound 0.0316 µM, first compound 0.03 µM) was 81.8% and the viability, T/C (second compound 0.0316 µM, first compound 0.0949 µM) was 75.3%. It also gave a viability, T/C (second compound 0.0316 µM, first compound 0.3 µM) of 58.5%, a viability, T/C (second compound 0.0316 µM, first compound 0.949 µM) of 59% and a viability, T/C (second compound 0.0316 µM, first compound 3 µM) of 45.9%. It also gave a viability, T/C [1] of 86.3%, a viability, T/C [2] of 78.9% and a viability, T/C [3] of 71.8%. It also gave a viability, T/C [4] of 55.4%, a viability, T/C (second compound 0.1 µM, first compound 0.949 µM) of 58.4% and a viability, T/C (second compound 0.1 µM, first compound 3 µM) of 40.4%. It also gave a viability, T/C [5] of 74.8%, a viability, T/C [6] of 63.4% and a viability, T/C [7] of 59.4%. The viability, T/C [8] was 46.2%, the viability, T/C (second compound 0.316 µM, first compound 0.949 µM) was 46.3% and the viability, T/C (second compound 0.316 µM, first compound 3 µM) was 38.3%. The viability, T/C [9] was 61.2%, the viability, T/C [10] was 61.9% and the viability, T/C [11] was 51%. It also gave a viability, T/C [12] of 46.8%, a viability, T/C (second compound 1 µM, first compound 0.949 µM) of 40.8% and a viability, T/C (second compound 1 µM, first compound 3 µM) of 28.9%.
For `NC(=O)C(=Cn1cnc(-c2cc(C(F)(F)F)cc(C(F)(F)F)c2)n1)c1cncnc1` + Cc1c(S(C)(=O)=O)c(-c2cc(F)cc(N3CCN(c4ccc(NS(=O)(=O)c5ccc(NC(CCN6CCC(C(=O)OCCCP(=O)(O)O)CC6)CSc6ccccc6)c(S(=O)(=O)C(F)(F)F)c5)cc4)CC3)c2)c(-c2ccc(Cl)cc2)n1C(C)C, the IC50 (second compound 0.1 µM) was > 0.3 µM, the IC50 (second compound 0.316 µM) was > 0.3 µM and the IC50 (second compound 1 µM) was > 0.3 µM. It also gave an IC50 (second compound 3.16 µM) of 0.148 µM, an IC50 (second compound 10 µM) of 0.0876 µM and a viability, T/C (second compound 0.1 µM, first compound 0.000949 µM) of 70.9%. It also gave a viability, T/C (second compound 0.1 µM, first compound 0.003 µM) of 72.3%, a viability, T/C [1] of 75% and a viability, T/C [2] of 57.8%. It also gave a viability, T/C [3] of 75.9%, a viability, T/C [4] of 66.1% and a viability, T/C (second compound 0.316 µM, first compound 0.000949 µM) of 81.2%. It also gave a viability, T/C (second compound 0.316 µM, first compound 0.003 µM) of 75.6%, a viability, T/C [5] of 80.3% and a viability, T/C [6] of 69.5%. For the same compound, the viability, T/C [7] was 66.3%, the viability, T/C [8] was 52.9% and the viability, T/C (second compound 1 µM, first compound 0.000949 µM) was 78%. For the same compound, the viability, T/C (second compound 1 µM, first compound 0.003 µM) was 63.5%, the viability, T/C [9] was 63.8% and the viability, T/C [10] was 68.5%. For the same compound, the viability, T/C [11] was 52.9%, the viability, T/C [12] was 59.5% and the viability, T/C (second compound 3.16 µM, first compound 0.000949 µM) was 57.2%. It also gave a viability, T/C (second compound 3.16 µM, first compound 0.003 µM) of 61.2%, a viability, T/C (second compound 3.16 µM, first compound 0.00949 µM) of 70.3% and a viability, T/C (second compound 3.16 µM, first compound 0.03 µM) of 63.9%. It also gave a viability, T/C (second compound 3.16 µM, first compound 0.0949 µM) of 59.6%, a viability, T/C (second compound 3.16 µM, first compound 0.3 µM) of 34% and a viability, T/C (second compound 10 µM, first compound 0.000949 µM) of 73%. For the same compound, the viability, T/C (second compound 10 µM, first compound 0.003 µM) was 63.9%, the viability, T/C (second compound 10 µM, first compound 0.00949 µM) was 61% and the viability, T/C (second compound 10 µM, first compound 0.03 µM) was 55%. For the same compound, the viability, T/C (second compound 10 µM, first compound 0.0949 µM) was 49.2% and the viability, T/C (second compound 10 µM, first compound 0.3 µM) was 45.6%.
`C#Cc1c(F)ccc2cc(O)cc(-c3ncc4c(N5CC6CCC(C5)N6)nc(OCC56CCCN5CC(F)C6)nc4c3F)c12` (configuration not stated) + Cc1c(S(C)(=O)=O)c(-c2cc(F)cc(N3CCN(c4ccc(NS(=O)(=O)c5ccc(NC(CCN6CCC(C(=O)OCCCP(=O)(O)O)CC6)CSc6ccccc6)c(S(=O)(=O)C(F)(F)F)c5)cc4)CC3)c2)c(-c2ccc(Cl)cc2)n1C(C)C was tested, and the IC50 (second compound 0.1 µM) was > 10 µM, the IC50 (second compound 0.316 µM) was > 10 µM and the IC50 (second compound 1 µM) was 7.57 µM. It also gave an IC50 (second compound 3.16 µM) of 8.82 µM, an IC50 (second compound 10 µM) of 1.21 µM and a viability, T/C (second compound 0.1 µM, first compound 0.0316 µM) of 82%. It also gave a viability, T/C (second compound 0.1 µM, first compound 0.1 µM) of 83.8%, a viability, T/C (second compound 0.1 µM, first compound 0.316 µM) of 63.6% and a viability, T/C (second compound 0.1 µM, first compound 1 µM) of 64.5%. For the same compound, the viability, T/C (second compound 0.1 µM, first compound 3.16 µM) was 79.7%, the viability, T/C (second compound 0.1 µM, first compound 10 µM) was 71.9% and the viability, T/C (second compound 0.316 µM, first compound 0.0316 µM) was 55%. The viability, T/C (second compound 0.316 µM, first compound 0.1 µM) was 79.5%, the viability, T/C (second compound 0.316 µM, first compound 0.316 µM) was 81.9% and the viability, T/C (second compound 0.316 µM, first compound 1 µM) was 70.1%. For the same compound, the viability, T/C (second compound 0.316 µM, first compound 3.16 µM) was 63.6%, the viability, T/C (second compound 0.316 µM, first compound 10 µM) was 63.5% and the viability, T/C (second compound 1 µM, first compound 0.0316 µM) was 73.3%. It also gave a viability, T/C (second compound 1 µM, first compound 0.1 µM) of 65.3%, a viability, T/C (second compound 1 µM, first compound 0.316 µM) of 63.8% and a viability, T/C (second compound 1 µM, first compound 1 µM) of 65.1%. The viability, T/C (second compound 1 µM, first compound 3.16 µM) was 59.2%, the viability, T/C (second compound 1 µM, first compound 10 µM) was 46.9% and the viability, T/C (second compound 3.16 µM, first compound 0.0316 µM) was 51.7%. For the same compound, the viability, T/C (second compound 3.16 µM, first compound 0.1 µM) was 68.3%, the viability, T/C (second compound 3.16 µM, first compound 0.316 µM) was 67.3% and the viability, T/C (second compound 3.16 µM, first compound 1 µM) was 60.7%. For the same compound, the viability, T/C (second compound 3.16 µM, first compound 3.16 µM) was 57.8%, the viability, T/C (second compound 3.16 µM, first compound 10 µM) was 49.1% and the viability, T/C (second compound 10 µM, first compound 0.0316 µM) was 64.8%. For the same compound, the viability, T/C (second compound 10 µM, first compound 0.1 µM) was 58.2%, the viability, T/C (second compound 10 µM, first compound 0.316 µM) was 59.9% and the viability, T/C (second compound 10 µM, first compound 1 µM) was 47%. The viability, T/C (second compound 10 µM, first compound 3.16 µM) was 47.3% and the viability, T/C (second compound 10 µM, first compound 10 µM) was 39.6%.
